Measurements reported in patent US6251898A, “Medical use of fluorenone derivatives for treating and preventing brain and spinal injury” (Questcor Pharmaceuticals, Inc., priority 1999, dated 2001).

What was measured:
[1] = tested on: neuronal damage caused by global brain ischemia; assay: Global cerebral ischemia, bilateral carotid occlusion model in gerbils; format: in vivo, Mongolian gerbils
From the text: The surgical and drug treatment procedures used in the animal model of global brain ischemia are described in Example 24. "Global" ischemia occurs when the entire brain is deprived of oxygenated blood, as occurs during crises such as cardiac arrest, suffocation, or carbon monoxide poisoning. It should be noted that the drug treatment was provided only after the ischemic insult had been fully completed (i.e., after the clamps which were used to temporarily close the carotid arteries had been released again). "Post-trauma" treatment offers a much more realistic, and much more difficult and stringent, challenge than other assays in which test animals are pre-treated with a test drug before an ischemic insult begins.
In one set of in vivo tests, the bilateral carotid occlusion model in gerbils was used to evaluate the abilities of a selected compound, GERI-E7, to protect against neuronal damage caused by global brain ischemia. These tests were performed in the laboratory of Dr. Claude Wasterlain, at the Sepulveda Veterans Administration Medical Center, in Los Angeles, Calif.
Adult male Mongolian gerbils were subjected to reversible bilateral carotid occlusion for 5 minutes, according to standard methods (e.g., Wasterlain et al 1992 and 1996). Each gerbil in a test group was then treated with a test compound at either 2 or 20 mg/kg, dissolved in injectable saline and administered intravenously (IV). Control animals were treated with saline. All treatment and control groups had 10 animals per group. Body temperature was maintained throughout the procedure by a heat lamp and rectal probe.
The gerbils were sacrificed 72 hours after surgery, and their brains were perfusion-fixed with paraformaldehyde. Serial sections of the brain were cut and stained with hematoxylin and eosin, and quantitative cell counts of live and dead neurons were made, using light and fluorescence microscopy, in two different parts of the brain that are highly sensitive to ischemic damage: (i) the subiculum, a zone of transition between the parahippocampus and the hippocampus; and (ii) the CA1 portion of the hippocampus. Statistical analysis was performed on all damage scores (non-paired student t test). All evaluations were made using double-blinded methods.

[2] = tested on: neuronal damage caused by focal brain ischemia; assay: Focal cerebral ischemia, middle cerebral artery occlusion model in rats; format: in vivo, Sprague-Dawley rats
Procedure: Other in vivo tests were also carried out using "focal" brain ischemia (i.e., blood supply to only a portion of the brain is disrupted, as usually occurs during a stroke). These assays used a surgical procedure described in Example 25, in which the right middle cerebral artery (MCA) and the right common carotid artery (CCA) of rats were clamped shut for two hours. The clamps were then removed, and the GERI-E7 was administered subsequently. The rats were sacrificed 3 days later, and brain sections were analyzed using tetrazolium dye, to determine the volumes of brain tissue with large numbers of dead or dying neurons.
In a second set of in vivo tests, a middle cerebral artery occlusion model was used in rats, to evaluate the ability of test compound GERI-E7 to reduce neuronal damage caused by focal brain ischemia. These tests were also performed in the laboratory of Dr. Claude Wasterlain, at the Sepulveda VA Medical Center in Los Angeles.
Male Sprague-Dawley rats (220 to 285 g) were intubated with an 18 gauge gavage needle and artificially respirated with a Harvard small animal respirator, 50 to 60 strokes/min, 2.0 to 3.0 cc. Anesthetization was induced by administering 1 to 2% methoxyflurane in a 1:2 O2 :N2 O gas mixture. To allow for rapid induction of the anesthetic state, succinylcholine (4 mg/kg, i.p.) was given immediately after anesthesia commenced, and surgery began 15 to 20 minutes later. Body temperature was maintained throughout by a heat lamp and rectal probe.
Focal cerebral ischemia was induced by reversibly clipping the right middle cerebral artery (MCA) and the right common carotid artery (CCA), as described in articles such as Kaplan et al 1991. A tracheal incision approximately 2.5 cm long was made, allowing placement of 4-0 suture silk under the CCA. This allowed rapid manipulation of the artery for clip placement. The temporalis muscle was partially excised and a 2 mm burr hole was drilled 2-3 mm rostral to the point of fusion of the zygoma with the temporal bone. Saline was used throughout this procedure for washing and maintenance of moisture.
The MCA was occluded below the rhinal fissure with a Codman Microaneurysm Clip #1. After the MCA was occluded the animal was turned onto its back and the CCA was occluded with a Roboz Microaneurysm Clip RS-5424.
A moistened piece of cotton was placed on the head wound and the tracheal region was partially closed by suture prior to placement of the animal in a warm cage with an oxygen tent. After a two-hour occlusion period (shown to produce a consistently measurable but non-lethal infarct), the clips were removed and methoxyflurane was administered via a nose cone. Visual verification was made for both artery occlusion, and post-occlusion reperfusion.
After the clips were removed and reperfusion was established, each animal was treated with either the GERI-E7 compound, at 20 mg/kg IV, or with the saline vehicle. All test and control groups had 10 animals. The wounds were closed and the animals were returned to their home cages.
Animals were sacrificed 72 hours later, and the brains were perfusion-fixedwith 4% paraformaldehyde. […] Infarct area was measured with an image analysis system at 8 to 10 levels between the posterior hippocampus and piriform olfactory cortex, to the level of the rhinal fissure. Infarct volume was determined by multiplying the average infarct area by the length of the brain between the posterior hippocampus and the piriform olfactory cortex. […]

## CCC[C@]12CCC(=O)C=C1c1c(cc(OCC3=NCCO3)c(Cl)c1Cl)C2 [GERI-E7, R(+)-2-[[(5,6-dichloro-2,3,9,9a-tetrahydro-3-oxo-9a-propyl-1H-fluoren-7-yl)-oxy]methyl]oxazoline]
[1]; CA1 region of hippocampus, IV after 5 min occlusion, 72 h, 2 or 20 mg/kg, on average
  Reduction of dead or dying neurons in the hippocampus: about 40%
[1]; animal model used
  Reduction of brain damage caused by global brain ischemia: very effective in reducing brain damage
[1]; mainly visual semi-quantitative methods
  Reduction in neuronal damage levels in other brain regions: significant reduction in neuronal damage levels in most of the other areas
[1]; subiculum and CA1, versus saline control, student t test
  Reduction in neuronal damage in both brain regions evaluated: substantial and statistically significant reduction in neuronal damage
[1]; subiculum, IV after 5 min occlusion, 72 h, 2 or 20 mg/kg, on average
  Reduction of dead or dying neurons in the subiculum: about 30%
[2]; 20 mg/kg IV after 2 h occlusion, 72 h
  Edema: Edema was also reduced
[2]; 20 mg/kg IV after 2 h occlusion, 72 h, FIG. 13
  Reduction of area of infarct volume: about 50%
[2]; animal model used
  Reduction of brain damage caused by focal brain ischemia: very effective in reducing brain damage
[2]; first round of focal assays
  Reduction of infarct volumes: about 30%
[2]; second set of assays, new batch stored in liquid nitrogen, mixed with carrier less than 24 hours before injection, average
  Reduction of infarct volumes: 50%
